Experimental data as given in patent US20240116913A1, “A CRYSTALLINE FORM OF (4-METHYL-2-[1,2,3]TRIAZOL-2-YL-PHENYL)-[(R)-3-(3-[1,2,3]TRIAZOL-2-YL-BENZYL)-MORPHOLIN-4-YL]-METHANONE” (Idorsia Pharmaceuticals Ltd, priority 2021, published 2024).

Tests used:
[1] = Bulk density and tapped density (Densi-tap tapping device); assay type: physicochemical; conditions: for Tapped density: after 3750 tappings; for Hausner ratio (HR) (ratio between tapped and bulk density): calculated from measured tapped and bulk densities; for Type of powder flow (flowability class from HR): classified from Hausner ratio; for Bulk density: powder without any processing, 10 mL glass cylinder
Method: Bulk and tapped density were measured on a Densi-tap tapping device from Matec using a 10 mL glass cylinder and using powder without any processing. For tapped density the value is reported after 3750 tappings.

[2] = Moisture sorption at 25° C. (dynamic vapor sorption, DVS); assay type: physicochemical; conditions: for Moisture picked up (mass change): range 0 to 95% RH at 25° C.
Method: Moisture sorption isotherm was collected on a multi sample instrument SPS-100n (Projekt Messtechnik, Ulm, Germany) operated in stepping mode at 25° C. The sample was allowed to equilibrate at 40% RH before starting a pre-defined humidity program 40-0-95-0-95-40% RH, steps of 5% RH and with a maximal equilibration time of 24 hours per step were applied. About 20 to 30 mg of each sample was used. The hygroscopic classification as disclosed herein is done according to the European Pharmacopeia Technical Guide (1999, page 86), that is, a material is classified as “not hygroscopic or “non-hygroscopic” when the increase in mass, as measured by the DVS method disclosed herein, is less than 0.2%; a material is classified as slightly hygroscopic, when the increase in mass is less than 2% and equal to or greater than 0.2% mass/mass; finally, a material is classified as hygroscopic, when the increase in mass is less than 15% and equal to or greater than 2% mass/mass. The mass change between 40% relative humidity and 80% relative humidity in the first adsorption scan was considered. Data shown are from the first upwards cycle.

[3] = listed as crystalline form 1 of ACT-539313

Row | Compound | Tapped density ([1]; listed as amorphous ACT-539313) [g/mL] | Hausner ratio (HR) (ratio between tapped and bulk density) ([1]; listed as amorphous material) | Type of powder flow (flowability class from HR) ([1]; listed as amorphous material) | Bulk density ([1]; listed as amorphous ACT-539313) [g/mL] | Hygroscopic classification according to Ph. Eur. ([2]; DVS at 25° C., mass change between 40% and 80% RH, first adsorption scan) | Moisture picked up (mass change) [2] | Tapped density [1] [g/mL] | Hausner ratio (HR) (ratio between tapped and bulk density) [1, 3] | Type of powder flow (flowability class from HR) [1, 3] | Bulk density [1] [g/mL] | Hygroscopicity compared between solid forms ([2]; cf. FIGS. 4 and 5, Tables 1 and 3)
1 | Cc1ccc(C(=O)N2CCOC[C@H]2Cc2cccc(-n3nccn3)c2)c(-n2nccn2)c1 [ACT-539313 in amorphous state, (4-Methyl-2-[1,2,3]triazol-2-yl-phenyl)-[(R)-3-(3-[1,2,3]triazol-2-yl-benzyl)-morpholin-4-yl]-methanone] | 0.13 | 2.26 | very, very poor (“very, very poor” (HR>1.60)) | 0.06 | slightly hygroscopic according to (classified as slightly hygroscopic, when the increase in mass is less than 2% and equal to or greater than 0.2% mass/mass) | ~2.6% of moisture in the range 0 | – | – | – | – | –
2 | Cc1ccc(C(=O)N2CCOC[C@H]2Cc2cccc(-n3nccn3)c2)c(-n2nccn2)c1 [ACT-539313 in crystalline form 1, (4-Methyl-2-[1,2,3]triazol-2-yl-phenyl)-[(R)-3-(3-[1,2,3]triazol-2-yl-benzyl)-morpholin-4-yl]-methanone] | – | – | – | – | – | Material picks up about 0.1% | 0.46 | 1.47 | very poor (“very poor” (HR from 1.46 to 1.59)) | 0.31 | less hygroscopic than the amorphous ACT-539313
